Experimental data published in US20090246153A1, “COSMETIC COMPOSITIONS FOR THE INHIBITION OF REACTIVE OXYGEN SPECIES” (Nu Skin International, Inc., priority 2008, published 2009).

Assays:
arNOX [1] = experiment: arNOX inhibition: superoxide formation measured by reduction of ferric cytochrome c, serum or buffy coats; format: biochemical
Experimental: Superoxide Production By Buffy Coats: Buffy coats, a mixture of lymphocytes and platelets. Such buffy coats are commercially available from, for example Rockland ImmunoChemicals (Gilbertsville, Pa.). The blood samples were maintained at 4° C. prior to collection and assay. Ca. 10^7 cells were added to each assay. Cell numbers were determined using a hemocytometer.
Reduction of ferric cytochrome c by superoxide was employed as a standard measure of superoxide formation (Mayo, L. A. and Cumutte, J. (1990) Meth. Enzyme. 186, 567-575. 7. Butler, J, Koppenol, W. H. and Margollash, E. (1982) J. Biol. Chem. 257, 10747). This is a widely accepted method when coupled to superoxide dismutase inhibition for the measurement of superoxide generation. The assay consists of 150 μl serum or 40 μl buffy coats in PBSG buffer (8.06 g NaCl, 0.2 g KCl, 0.18 g Na2HPO4, 0.26 g KH2PO4, 0.13 g CaCl2, 0.1 g MgCl2 1.35 g glucose dissolved in 1000 ml deionized water, adjusted to pH 7.4, filtered and stored at 4° C.) Rates were determined using an SLM Aminco DW-2000 spectrophotometer (Milton Roy, Rochester, N.Y., USA) in the dual wave length mode of operation with continuous measurements over 1 min every 1.5 min. After 45 min, test compounds were added and the reaction was continued for 45 min. After 45 min. A millimolar extinction coefficient of 19.1 cm^−1 was used for reduced ferricytochrome c. The results of the test compounds are provided in Table I. Extracts were made of the compounds in water unless otherwise indicated.

arNOX [2] = conditions: cited from earlier work

Compound	ArNOX ACTIVITY % OF NO ADDITION (arNOX [1]; Ethanol, 25 μg/ml)	INHIBITION (−) or STIMULATION (+) (arNOX [1]; Ethanol, 25 μg/ml)	arNOX activity of aging cells (arNOX [2])	ArNOX ACTIVITY % OF NO ADDITION (arNOX [1]; Ethanol, 0.25 μg/ml)	INHIBITION (−) or STIMULATION (+) (arNOX [1]; Ethanol, 0.25 μg/ml)	ArNOX ACTIVITY % OF NO ADDITION (arNOX [1]; Ethanol, 2.5 μg/ml)	INHIBITION (−) or STIMULATION (+) (arNOX [1]; Ethanol, 2.5 μg/ml)	ArNOX ACTIVITY % OF NO ADDITION (arNOX [1]; Water, 25 μg/ml)	INHIBITION (−) or STIMULATION (+) (arNOX [1]; Water, 25 μg/ml)
CC1=C(/C=C/C(C)=C/C=C/C(C)=C/C=C/C=C(C)/C=C/C=C(C)/C=C/C2=C(C)C(=O)[C@@H](O)CC2(C)C)C(C)(C)C[C@H](O)C1=O [Natural astaxanthin, astaxanthin]	62%	−38%	–	–	–	–	–	–	–
COC1=C(OC)C(=O)C(C/C=C(\C)CC/C=C(\C)CC/C=C(\C)CC/C=C(\C)CC/C=C(\C)CC/C=C(\C)CC/C=C(\C)CC/C=C(\C)CC/C=C(\C)CCC=C(C)C)=C(C)C1=O [co-enzyme Q, ubiquinone]	–	–	inhibited	–	–	–	–	–	–
CC1=C(/C=C/C(C)=C/C=C/C(C)=C/C=C/C=C(C)/C=C/C=C(C)/C=C/C2=C(C)CCCC2(C)C)C(C)(C)CCC1 [β-Carotene]	68%	−32%	–	73%	−42%	50%	−50%	28%	−72%
